From patent US11072617B2, “Bicyclic sulfones and sulfoxides and methods of use thereof” (Genentech, Inc., priority 2017, dated 2021) come the findings set out here.

Bounds are passed on as bounds.

The experiment addresses human RIP1 kinase domain (2-375) (Homo sapiens (Human), UniProt Q13546). As to the kind of experiment: RIP1 kinase inhibition biochemical assay (Transcreener ADP, fluorescence polarization). As to conditions: Ki app from tight-binding Morrison equation; 50 nM enzyme, 50 uM ATP, 2 hours incubation. The method, boiled down:
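Baculovirus-expressed human RIP1 kinase domain (2-375), 50 nM, incubated 2 h with compounds in pH 7.5 Hepes, 30 mM MgCl2, 50 uM ATP, 0.5% DMSO. ADP detected by Transcreener fluorescence-polarization tracer displacement; Ki^app from Morrison tight-binding fit.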
For orientation: Polarisation of emitted light reports the rotation of a fluorescent probe.

Sequence of human RIP1 kinase domain (2-375) (Q13546 2-375): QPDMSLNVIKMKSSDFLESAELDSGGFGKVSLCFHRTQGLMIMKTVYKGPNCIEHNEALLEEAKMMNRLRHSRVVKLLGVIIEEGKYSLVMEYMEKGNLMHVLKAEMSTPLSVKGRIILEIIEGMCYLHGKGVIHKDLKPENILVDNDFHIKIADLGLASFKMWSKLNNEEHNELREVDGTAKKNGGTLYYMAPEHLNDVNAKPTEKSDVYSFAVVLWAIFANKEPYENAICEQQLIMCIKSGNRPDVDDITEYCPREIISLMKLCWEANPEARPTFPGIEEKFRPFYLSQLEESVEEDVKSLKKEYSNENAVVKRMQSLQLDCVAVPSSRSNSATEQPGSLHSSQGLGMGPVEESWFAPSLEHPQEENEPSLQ

On to `[O-][S+](Cc1ccccn1)c1nc2n(n1)[C@H](c1ccccc1)C[C@@H]2F` (stereo partly drawn) [Example 147, (5S,7S)-7-fluoro-5-phenyl-2-((pyridin-2-ylmethyl)sulfinyl)-6,7-dihydro-5H-pyrrolo[1,2-b][1,2,4]triazole], for which the Ki was determined as 140 nM. Turning to `[O-][S+](CC(F)F)c1nc2n(n1)[C@H](c1ccccc1)C[C@@H]2F` (stereo partly drawn) [Example 148, (5S,7S)-2-(2,2-difluoroethylsulfinyl)-7-fluoro-5-phenyl-6,7-dihydro-5H-pyrrolo[1,2-b][1,2,4]triazole], the Ki came out at 7 nM. The compound `CC(F)S(=O)(=O)c1nc2n(n1)[C@H](c1ccccc1)C[C@@H]2F` (stereo partly drawn) [Example 158, (5S,7S)-7-fluoro-2-(1-fluoroethylsulfonyl)-5-phenyl-6,7-dihydro-5H-pyrrolo[1,2-b][1,2,4]triazole] displayed a Ki of 13 nM. Turning to `O=S(=O)(c1nc2n(n1)[C@H](c1ccccc1)C[C@@H]2F)C1CCOC1` (stereo partly drawn) [Example 166, (5S,7S)-7-fluoro-5-phenyl-2-tetrahydrofuran-3-ylsulfonyl-6,7-dihydro-5H-pyrrolo[1,2-b][1,2,4]triazole], the Ki is 43 nM. Turning to `CC1(S(=O)(=O)c2nc3n(n2)[C@H](c2ccccc2)C[C@@H]3F)CC1(F)F` (stereo partly drawn) [Example 167, (5S,7S)-2-((2,2-difluoro-1-methylcyclopropyl)sulfonyl)-7-fluoro-5-phenyl-6,7-dihydro-5H-pyrrolo[1,2-b][1,2,4]triazole], the Ki was 12 nM. As for `O=S(=O)(c1nc2n(n1)[C@H](c1ccccc1)C[C@@H]2F)C1CC12CC2` (stereo partly drawn) [Example 170, (5S,7S)-7-fluoro-5-phenyl-2-spiro[2.2]pentan-2-ylsulfonyl-6,7-dihydro-5H-pyrrolo[1,2-b][1,2,4]triazole], the Ki is under 5 nM.

Turning to `O=S(=O)(c1nc2n(n1)[C@H](c1ccccc1)C[C@@H]2F)[C@@H]1CCC1(F)F` [Example 171, (5S,7S)-7-fluoro-5-phenyl-2-[(1R)-2,2-difluorocyclobutyl]sulfonyl-6,7-dihydro-5H-pyrrolo[1,2-b][1,2,4]triazole], the Ki was under 5 nM.

`O=S(=O)(c1nc2n(n1)[C@H](c1ccccc1)C[C@@H]2F)[C@H]1CCC1(F)F` [Example 172, (5S,7S)-7-fluoro-5-phenyl-2-[(1S)-2,2-difluorocyclobutyl]sulfonyl-6,7-dihydro-5H-pyrrolo[1,2-b][1,2,4]triazole] displayed a Ki of 6 nM. Compound `[O-][S+](c1nc2n(n1)C(c1cc(F)cc(F)c1)CC2)C(F)F` (stereo not shown) [Example 176, 2-(Difluoromethylsulfinyl)-5-(3,5-difluorophenyl)-6,7-dihydro-5H-pyrrolo[1,2-b][1,2,4]triazole] displayed a Ki of 110 nM. Compound `[O-][S+](CC(F)(F)F)c1nc2n(n1)C(c1ccccc1)CC2` (stereo not shown) [Example 177, 5-Phenyl-2-(2,2,2-trifluoroethylsulfinyl)-6,7-dihydro-5H-pyrrolo[1,2-b][1,2,4]triazole] displayed a Ki of 57 nM. With `O=S(=O)(c1nc2n(n1)[C@H](c1cccc(Cl)c1)C[C@@H]2F)C1CC1` [Example 203, (5S,7S)-5-(3-chlorophenyl)-2-cyclopropylsulfonyl-7-fluoro-6,7-dihydro-5H-pyrrolo[1,2-b][1,2,4]triazole] the figure was 39 nM; with `O=S(=O)(c1nc2n(n1)[C@H](c1cccc(F)c1F)C[C@@H]2F)[C@H]1C[C@H](F)C1` [Example 204, (5S,7S)-5-(2,3-difluorophenyl)-7-fluoro-2-trans-(3-fluorocyclobutyl)sulfonyl-6,7-dihydro-5H-pyrrolo[1,2-b][1,2,4]triazole], 16 nM; with `O=S(=O)(c1nc2n(n1)[C@H](c1cccc(Cl)c1F)C[C@@H]2F)[C@@H]1C[C@H]1F` [Example 208, (5S,7S)-5-(3-chloro-2-fluoro-phenyl)-7-fluoro-2-[(1R,2R)-2-fluorocyclopropyl]sulfonyl-6,7-dihydro-5H-pyrrolo[1,2-b][1,2,4]triazole], 7 nM. With `N#C[C@H]1C[C@@H]1S(=O)(=O)c1nc2n(n1)[C@H](c1ccccc1)C[C@@H]2F` [Example 209, (1R,2S)-2-[[(5S,7S)-7-fluoro-5-phenyl-6,7-dihydro-5H-pyrrolo[1,2-b][1,2,4]triazol-2-yl]sulfonyl]cyclopropanecarbonitrile], the Ki was under 5 nM.

On to `N#C[C@H]1C[C@@H](S(=O)(=O)c2nc3n(n2)[C@H](c2ccccc2)C[C@@H]3F)C1` [Example 210, Cis-3-[[(5S,7S)-7-fluoro-5-phenyl-6,7-dihydro-5H-pyrrolo[1,2-b][1,2,4]triazol-2-yl]sulfonyl]cyclobutanecarbonitrile], for which the Ki was found to be 55 nM. Compound `N#C[C@H]1C[C@H](S(=O)(=O)c2nc3n(n2)[C@H](c2ccccc2)C[C@@H]3F)C1` [Example 211, trans-3-[[(5S,7S)-7-Fluoro-5-phenyl-6,7-dihydro-5H-pyrrolo[1,2-b][1,2,4]triazol-2-yl]sulfonyl]cyclobutanecarbonitrile] yielded a Ki of 12 nM.

As to `N#C[C@@H]1C[C@H]1S(=O)(=O)c1nc2n(n1)[C@H](c1ccccc1)C[C@@H]2F` [Example 212, (1S,2R)-2-[[(5S,7S)-7-fluoro-5-phenyl-6,7-dihydro-5H-pyrrolo[1,2-b][1,2,4]triazol-2-yl]sulfonyl]cyclopropanecarbonitrile], the Ki worked out at 11 nM.

`O=S(=O)(c1nc2n(n1)[C@H](c1ccccc1)C[C@@H]2F)[C@H]1C[C@H](OC(F)F)C1` [Example 213, (5S,7S)-2-trans-[3-(difluoromethoxy)cyclobutyl]sulfonyl-7-fluoro-5-phenyl-6,7-dihydro-5H-pyrrolo[1,2-b][1,2,4]triazole] yielded a Ki of 6 nM. Take `O=S(=O)(c1nc2n(n1)[C@H](c1cccc(Cl)c1F)C[C@@H]2F)[C@H]1C[C@@H]1F` [Example 219, (5S,7S)-5-(3-chloro-2-fluoro-phenyl)-7-fluoro-2-[(1S,2S)-2-fluorocyclopropyl]sulfonyl-6,7-dihydro-5H-pyrrolo[1,2-b][1,2,4]triazole]: the Ki was 25 nM.
